Test: mn = molality of the nth substance listed, in mol/kg
Conditions: Liquid

O=[N+]([O-])[O-].[Li+] [lithium nitrate] + CO
Conditions | mass density [kg/m3]
298.15 K, 124 kPa, m1 = 0.1551 | 794.38
298.15 K, 125 kPa, m1 = 0.2943 | 800.98
298.15 K, 254 kPa, m1 = 0.8904 | 826.51
298.15 K, 4856 kPa, m1 = 0.1551 | 798.86
298.15 K, 5035 kPa, m1 = 0.2943 | 805.54
298.15 K, 5745 kPa, m1 = 0.8904 | 831.27
298.15 K, 10235 kPa, m1 = 0.2943 | 810.19
298.15 K, 10235 kPa, m1 = 0.8904 | 835.02
298.15 K, 11542 kPa, m1 = 0.1551 | 804.92
298.15 K, 15247 kPa, m1 = 0.2943 | 814.48
298.15 K, 15625 kPa, m1 = 0.8904 | 839.35
298.15 K, 16024 kPa, m1 = 0.1551 | 808.79
298.15 K, 19745 kPa, m1 = 0.1551 | 811.89
298.15 K, 20056 kPa, m1 = 0.2943 | 818.43
298.15 K, 20856 kPa, m1 = 0.8904 | 843.37
298.15 K, 25158 kPa, m1 = 0.2943 | 822.44
298.15 K, 25656 kPa, m1 = 0.8904 | 846.91
298.15 K, 25856 kPa, m1 = 0.1551 | 816.76
298.15 K, 30142 kPa, m1 = 0.1551 | 820.02
298.15 K, 30235 kPa, m1 = 0.2943 | 826.24
298.15 K, 30254 kPa, m1 = 0.8904 | 850.16
298.15 K, 35626 kPa, m1 = 0.8904 | 853.78
298.15 K, 35751 kPa, m1 = 0.2943 | 830.16
298.15 K, 35785 kPa, m1 = 0.1551 | 824.09
298.15 K, 39875 kPa, m1 = 0.2943 | 832.95
298.15 K, 39897 kPa, m1 = 0.1551 | 826.91
298.15 K, 39957 kPa, m1 = 0.8904 | 856.57
298.27 K, 205 kPa, m1 = 3.614 | 928.48
298.27 K, 5001 kPa, m1 = 3.614 | 931.92
298.27 K, 10011 kPa, m1 = 3.614 | 935.38
298.27 K, 15005 kPa, m1 = 3.614 | 938.69
298.27 K, 19984 kPa, m1 = 3.614 | 941.89
298.27 K, 25008 kPa, m1 = 3.614 | 945.02
298.27 K, 30003 kPa, m1 = 3.614 | 948.03
298.27 K, 35001 kPa, m1 = 3.614 | 950.96
298.27 K, 40010 kPa, m1 = 3.614 | 953.79
298.28 K, 189 kPa, m1 = 1.803 | 863.5
298.28 K, 205 kPa, m1 = 0.5393 | 811.38
298.28 K, 4985 kPa, m1 = 0.5393 | 815.76
298.28 K, 4986 kPa, m1 = 1.803 | 867.42
298.28 K, 9983 kPa, m1 = 1.803 | 871.31
298.28 K, 9995 kPa, m1 = 0.5393 | 820.13
298.28 K, 14986 kPa, m1 = 1.803 | 875.06
298.28 K, 15005 kPa, m1 = 0.5393 | 824.3
298.28 K, 19989 kPa, m1 = 1.803 | 878.65
298.28 K, 19996 kPa, m1 = 0.5393 | 828.26
298.28 K, 24989 kPa, m1 = 1.803 | 882.11
298.28 K, 24994 kPa, m1 = 0.5393 | 832.06
298.28 K, 29989 kPa, m1 = 1.803 | 885.44
298.28 K, 29991 kPa, m1 = 0.5393 | 835.71
298.28 K, 34990 kPa, m1 = 1.803 | 888.67
298.28 K, 34996 kPa, m1 = 0.5393 | 839.23
298.28 K, 39995 kPa, m1 = 0.5393 | 842.62
298.28 K, 39997 kPa, m1 = 1.803 | 891.8
323.15 K, 215 kPa, m1 = 0.8904 | 804.21
323.15 K, 321 kPa, m1 = 0.2943 | 777.56
323.15 K, 412 kPa, m1 = 0.1551 | 770.76
323.15 K, 5026 kPa, m1 = 0.8904 | 809.05
323.15 K, 5087 kPa, m1 = 0.2943 | 782.63
323.15 K, 5784 kPa, m1 = 0.1551 | 776.58
323.15 K, 9859 kPa, m1 = 0.1551 | 780.81
323.15 K, 10214 kPa, m1 = 0.8904 | 814.03
323.15 K, 10862 kPa, m1 = 0.2943 | 788.49
323.15 K, 15038 kPa, m1 = 0.2943 | 792.54
323.15 K, 15864 kPa, m1 = 0.8904 | 819.19
323.15 K, 16173 kPa, m1 = 0.1551 | 787.05
323.15 K, 19786 kPa, m1 = 0.1551 | 790.45
323.15 K, 20247 kPa, m1 = 0.8904 | 823
323.15 K, 20742 kPa, m1 = 0.2943 | 797.81
323.15 K, 25168 kPa, m1 = 0.2943 | 801.7
323.15 K, 25632 kPa, m1 = 0.8904 | 827.45
323.15 K, 26297 kPa, m1 = 0.1551 | 796.26
323.15 K, 30058 kPa, m1 = 0.8904 | 830.92
323.15 K, 30685 kPa, m1 = 0.2943 | 806.29
323.15 K, 31035 kPa, m1 = 0.1551 | 800.23
323.15 K, 35027 kPa, m1 = 0.2943 | 809.7
323.15 K, 35214 kPa, m1 = 0.8904 | 834.74
323.15 K, 35748 kPa, m1 = 0.1551 | 803.97
323.15 K, 39867 kPa, m1 = 0.1551 | 807.06
323.15 K, 39867 kPa, m1 = 0.8904 | 837.98
323.15 K, 40002 kPa, m1 = 0.2943 | 813.4
323.23 K, 206 kPa, m1 = 3.614 | 908.05
323.23 K, 211 kPa, m1 = 0.5393 | 788.49
323.23 K, 234 kPa, m1 = 1.803 | 842.01
323.23 K, 4982 kPa, m1 = 3.614 | 911.88
323.23 K, 4988 kPa, m1 = 1.803 | 846.4
323.23 K, 4989 kPa, m1 = 0.5393 | 793.5
323.23 K, 9987 kPa, m1 = 3.614 | 915.71
323.23 K, 9991 kPa, m1 = 0.5393 | 798.45
323.23 K, 10005 kPa, m1 = 1.803 | 850.8
323.23 K, 14993 kPa, m1 = 3.614 | 919.41
323.23 K, 14999 kPa, m1 = 0.5393 | 803.13
323.23 K, 15005 kPa, m1 = 1.803 | 854.96
323.23 K, 19987 kPa, m1 = 3.614 | 922.95
323.23 K, 19992 kPa, m1 = 1.803 | 858.94
323.23 K, 19999 kPa, m1 = 0.5393 | 807.57
323.23 K, 24991 kPa, m1 = 3.614 | 926.36
323.23 K, 24995 kPa, m1 = 1.803 | 862.77
323.23 K, 24997 kPa, m1 = 0.5393 | 811.8
323.23 K, 29993 kPa, m1 = 0.5393 | 815.84
323.23 K, 29998 kPa, m1 = 3.614 | 929.67
323.23 K, 30014 kPa, m1 = 1.803 | 866.46
323.23 K, 34988 kPa, m1 = 0.5393 | 819.71
323.23 K, 34989 kPa, m1 = 3.614 | 932.86
323.23 K, 34999 kPa, m1 = 1.803 | 869.98
323.23 K, 39993 kPa, m1 = 3.614 | 935.96
323.23 K, 39995 kPa, m1 = 0.5393 | 823.45
323.23 K, 39997 kPa, m1 = 1.803 | 873.39
348.15 K, 381 kPa, m1 = 0.1551 | 746.07
348.15 K, 409 kPa, m1 = 0.8904 | 781.31
348.15 K, 425 kPa, m1 = 0.2943 | 753.31
348.15 K, 5068 kPa, m1 = 0.1551 | 751.95
348.15 K, 5124 kPa, m1 = 0.2943 | 759.07
348.15 K, 5124 kPa, m1 = 0.8904 | 786.59
348.15 K, 10572 kPa, m1 = 0.2943 | 765.41
348.15 K, 10865 kPa, m1 = 0.8904 | 792.73
348.15 K, 10875 kPa, m1 = 0.1551 | 758.86
348.15 K, 15038 kPa, m1 = 0.1551 | 763.56
348.15 K, 15324 kPa, m1 = 0.2943 | 770.66
348.15 K, 15326 kPa, m1 = 0.8904 | 797.27
348.15 K, 19875 kPa, m1 = 0.1551 | 768.75
348.15 K, 20125 kPa, m1 = 0.2943 | 775.7
348.15 K, 20875 kPa, m1 = 0.8904 | 802.64
348.15 K, 25412 kPa, m1 = 0.8904 | 806.8
348.15 K, 25632 kPa, m1 = 0.2943 | 781.14
348.15 K, 26038 kPa, m1 = 0.1551 | 774.93
348.15 K, 30057 kPa, m1 = 0.2943 | 785.25
348.15 K, 30587 kPa, m1 = 0.8904 | 811.29
348.15 K, 31412 kPa, m1 = 0.1551 | 779.95
348.15 K, 35231 kPa, m1 = 0.8904 | 815.1
348.15 K, 35748 kPa, m1 = 0.1551 | 783.73
348.15 K, 35942 kPa, m1 = 0.2943 | 790.36
348.15 K, 39511 kPa, m1 = 0.2943 | 793.25
348.15 K, 39784 kPa, m1 = 0.1551 | 787.04
348.15 K, 40005 kPa, m1 = 0.8904 | 818.78

Reference: the NIST ThermoML archive (doi:10.1016/j.jct.2006.01.008)
